Experiment [1] concerns cultured human mast cells (CHMC). Nature of the experiment: CHMC low cell density ionomycin activation: tryptase assay. Type of experiment: cell-based. The note with it: low cell density CHMC, 3 pt, read-out: LD Tryptase, CHMC, Iono, 3 pt.
Experiment [2] shares this test system. Description: CHMC low cell density IgE activation: tryptase assay. The class given is cell-based. The note with it: low cell density CHMC, IgE activation. A digest of the protocol: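 CHMC at 1000–1500 cells/well were preincubated 1 hr at 37° C., stimulated with anti-IgE for 30 minutes at 37° C., then pelleted. Supernatant tryptase was measured with a fluorogenic substrate after 30 min at room temperature, against un-stimulated control wells.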

Setting [3] is: Homo sapiens, Mast cell, tryptase readout.
Where [4] appears, read: Homo sapiens, Mast cell, tryptase readout, 3 pt, read-out: LD Tryptase, CHMC, IgE, 3 pt.
The mark [5] stands for this setting: Homo sapiens, Mast cell, tryptase readout, 8 pt, read-out: LD Tryptase, CHMC, IgE, 8 pt.
[6] abbreviates: Homo sapiens, Mast cell, tryptase.
Setting [7] is: Homo sapiens, Mast cell, tryptase, 3 pt, read-out: LD Tryptase, CHMC, IgE, 3 pt.
The mark [8] stands for this setting: Homo sapiens, Mast cell, tryptase, 8 pt, read-out: LD Tryptase, CHMC, IgE, 8 pt.
Where [9] appears, read: tryptase, 3 pt, read-out: LD Tryptase, CHMC, IgE, 3 pt.
Where [10] appears, read: tryptase, 8 pt, read-out: LD Tryptase, CHMC, IgE, 8 pt.

The structures appear in SMILES notation.

Turning to `CCOC(=O)N1CCN(c2cccc(Nc3ncc(F)c(Nc4cc(C(C)(C)C)[nH]n4)n3)c2)CC1` [Compound 1101, N4-(5-tert-Butyl-1H-pyrazol-3-yl)-N2-[3-(4-ethoxycarbonylpiperazino)phenyl]-5-fluoro-2,4-pyrimidinediamine], the IC50 in experiment [1] (setting [3]) was over 10 µM; in experiment [2] (setting [4]), under 10 µM.

Take `CC(=O)N1CCN(c2ccc(Nc3ncc(F)c(Nc4cc(C(C)(C)C)[nH]n4)n3)cc2)CC1` [Compound 1102]: the IC50 in experiment [1] (setting [3]) is over 10 µM; in experiment [2] (setting [4]) it was under 10 µM; in experiment [2] (setting [5]), under 10 µM.

In the case of `COC(=O)N1CCN(c2ccc(Nc3ncc(F)c(Nc4cc(C(C)(C)C)[nH]n4)n3)cc2)CC1` [Compound 1103], the IC50 is over 10 µM in experiment [1] (setting [3]), under 10 µM in experiment [2] (setting [4]) and under 10 µM in experiment [2] (setting [5]).

Consider `CN1CCN(c2ccc(Nc3ncc(F)c(Nc4cc(C(C)(C)C)[nH]n4)n3)cc2)CC1` [Compound 1104], for which the IC50 in experiment [1] (setting [3]) is over 10 µM; in experiment [2] (setting [4]), under 10 µM; in experiment [2] (setting [5]) it was under 10 µM.

As to `CC(=O)N1CCN(c2ccc(Nc3ncc(F)c(Nc4cccc(NC5=NCCN5)c4)n3)cc2)CC1` [Compound 1105, N2-[4-(4-Acetylpiperazino)phenyl]-5-fluoro-N4-[3-(N-2-imidazolin-2-yl)aminophenyl]-2,4-pyrimidinediamine], the IC50 in experiment [1] (setting [3]) and in experiment [2] (setting [4]) was over 10 µM throughout.

As for `CC(=O)N1CCN(c2cccc(Nc3ncc(F)c(Nc4cccc(NC5=NCCN5)c4)n3)c2)CC1` [Compound 1106], the IC50 in experiment [1] (setting [3]) and in experiment [2] (setting [4]) was over 10 µM throughout.

Consider `CCOC(=O)c1cc2cccc(Nc3ncc(F)c(NC4CCC4)n3)c2[nH]1` [Compound 1107, N4-Cyclobutyl-N2-[2-(ethoxycarbonyl)indol-7-yl]-5-fluoro-2,4-pyrimidinediamine], for which the IC50 in experiment [1] (setting [3]) and in experiment [2] (setting [4]) was under 10 µM each time.

Take `Fc1cnc(Nc2cccc(N3CCOCC3)c2)nc1NC1CCC1` [Compound 1108, N4-Cyclobutyl-5-fluoro-N2-(3-morpholinophenyl)-2,4-pyrimidinediamine]: the IC50 was over 10 µM in experiment [1] (setting [3]), under 10 µM in experiment [2] (setting [4]) and under 10 µM in experiment [2] (setting [5]).

On to `CCOC(=O)N1CCN(c2cccc(Nc3ncc(F)c(NC4CCC4)n3)c2)CC1` [Compound 1109, N4-Cyclobutyl-N2-[3-(4-ethoxycarbonylpiperazino)pheny]-5-fluoro-2,4-pyrimidinediamine], for which the IC50 in experiment [1] (tryptase readout) was over 10 µM; in experiment [2] (tryptase readout, 3 pt, read-out: LD Tryptase, CHMC, IgE, 3 pt) it was under 10 µM.

For `CN1CCN(c2ccc(Nc3ncc(F)c(NC4CCC4)n3)cc2)CC1` [Compound 1110, N4-Cyclobutyl-5-fluoro-N2-[4-(4-methylpiperazino)phenyl]-2,4-pyrimidinediamine], the IC50 was over 10 µM in experiment [1] (setting [3]) and under 10 µM in experiment [2] (setting [4]).

Regarding `CCOC(=O)N1CCN(c2ccc(Nc3ncc(F)c(NC4CCC4)n3)cc2)CC1` [Compound 1111, N4-Cyclobutyl-N2-[4-(4-ethoxycarbonylpiperazino)phenyl]-5-fluoro-2,4-pyrimidinediamine], the IC50 was over 10 µM in experiment [1] (setting [6]) and under 10 µM in experiment [2] (setting [7]).

Take `CC(=O)N1CCN(c2cccc(Nc3ncc(F)c(Nc4cc(C5CC5)n[nH]4)n3)c2)CC1` [Compound 1112]: the IC50 in experiment [1] (setting [6]), in experiment [2] (setting [7]) and in experiment [2] (setting [8]) was under 10 µM in each case.

On to `CN1CCN(c2ccc(Nc3ncc(F)c(Nc4cc(C5CC5)n[nH]4)n3)cc2)CC1` [Compound 1113, N4-(3-Cyclopropyl-1H-pyrazol-5-yl)-5-fluoro-N2-[4-(4-methylpiperazino)phenyl]-2,4-pyrimidinediamine], for which the IC50 in experiment [1] (setting [6]) was over 10 µM; in experiment [2] (setting [7]), under 10 µM; in experiment [2] (setting [8]), under 10 µM.

With `Fc1cnc(Nc2cccc(N3CCOCC3)c2)nc1Nc1cc(C2CC2)n[nH]1` [Compound 1114], the figures for the IC50 in experiment [1] (setting [6]), in experiment [2] (setting [7]) and in experiment [2] (setting [8]) were over 10 µM, under 10 µM and under 10 µM, respectively.

With `CCOC(=O)N1CCN(c2cccc(Nc3ncc(F)c(Nc4cc(C5CC5)n[nH]4)n3)c2)CC1` [Compound 1115], the IC50 in experiment [1] (setting [6]) and in experiment [2] (setting [7]) was under 10 µM throughout.

For the molecule `CCOC(=O)N1CCN(c2ccc(Nc3ncc(F)c(Nc4cc(C5CC5)n[nH]4)n3)cc2)CC1` [Compound 1116, N4-(3-Cyclopropyl-1H-pyrazol-5-yl)-N2-[4-(4-ethoxycarbonylpiperazino)phenyl]-5-fluoro-2,4-pyrimidinediamine], the IC50 in experiment [1] (setting [6]) and in experiment [2] (setting [7]) was under 10 µM each time.

For the molecule `Fc1cnc(Cl)nc1Nc1ccc2c(n1)NCCO2` [Compound 1117, 2-Chloro-5-fluoro-N4-(3,4-dihydro-2H,4H-5-pyrid[1,4]oxazin-6-yl)-4-pyrimidineamine], the IC50 in experiment [1] (tryptase) and in experiment [2] (setting [9]) was over 10 µM in each case.

`CC(C)(C)OC(=O)N1CC(Nc2nc(Nc3ccc(N4CCOCC4)cc3)ncc2F)C1` [Compound 1118, N4-(1-tert-Butoxycarbonylazetidin-3-yl)-5-fluoro-N2-(4-morpholinophenyl)-2,4-pyrimidinediamine]: the IC50 in experiment [1] (setting [6]) and in experiment [2] (setting [7]) was under 10 µM in each case.

Regarding `CC(=O)N1CCN(c2ccc(Nc3ncc(F)c(NC4CN(C(=O)OC(C)(C)C)C4)n3)cc2)CC1` [Compound 1119, N2-[4-(4-Acetylpiperazino)phenyl]-N4-(1-tert-butoxycarbonylazetidin-3-yl)-5-fluoro-2,4-pyrimidinediamine], the IC50 in experiment [1] (setting [6]) is over 10 µM; in experiment [2] (setting [7]), under 10 µM.

Consider `CC(=O)N1CCN(c2cccc(Nc3ncc(F)c(NC4CN(C(=O)OC(C)(C)C)C4)n3)c2)CC1` [Compound 1120, N2-[3-(4-Acetylpiperazino)phenyl]-N4-(1-tert-butoxycarbonylazetidin-3-yl)-5-fluoro-2,4-pyrimidinediamine], for which the IC50 in experiment [1] (setting [6]) and in experiment [2] (setting [7]) was over 10 µM throughout.

On to `Fc1cnc(Nc2ccc(N3CCOCC3)cc2)nc1Nc1cc(C2CC2)n[nH]1` [Compound 1121], for which the values for the IC50 in experiment [1] (setting [6]), in experiment [2] (setting [7]) and in experiment [2] (setting [8]) were over 10 µM, under 10 µM and under 10 µM, respectively.

Regarding `CCOC(=O)N1CCN(c2ccc(Nc3ncc(F)c(NC4CN(C(=O)OC(C)(C)C)C4)n3)cc2)CC1` [Compound 1122], the figures for the IC50 in experiment [1] (setting [6]) and in experiment [2] (setting [7]) were over 10 µM and under 10 µM, respectively.

For `Fc1cnc(Nc2ccc(N3CCOCC3)cc2)nc1NC1CNC1` [Compound 1123], the figures for the IC50 in experiment [1] (setting [6]) and in experiment [2] (setting [7]) were under 10 µM and over 10 µM, respectively.

In the case of `CC(=O)N1CCN(c2ccc(Nc3ncc(F)c(NC4CNC4)n3)cc2)CC1` [Compound 1124], the IC50 in experiment [1] (setting [6]) and in experiment [2] (setting [7]) was over 10 µM in each case.

As for `CCOC(=O)N1CCN(c2ccc(Nc3ncc(F)c(NC4CNC4)n3)cc2)CC1` [Compound 1125], the IC50 in experiment [1] (setting [6]) and in experiment [2] (setting [7]) was over 10 µM each time.

Take `Fc1cnc(Nc2cccc(N3CCOCC3)c2)nc1NC1CNC1` [Compound 1126]: the results for the IC50 in experiment [1] (setting [6]) and in experiment [2] (setting [7]) were under 10 µM and over 10 µM, respectively.

Regarding `CC(=O)N1CCN(c2cccc(Nc3ncc(F)c(NC4CNC4)n3)c2)CC1` [Compound 1127], the IC50 was over 10 µM in experiment [1] (setting [6]) and under 10 µM in experiment [2] (setting [7]).

Take `Fc1cnc(Nc2ccc(N3CCOCC3)cc2)nc1Nc1ccc2c(n1)NCCO2` [Compound 1128, N4-(3,4-Dihydro-2H,4H-5-pyrid[1,4]oxazin-6-yl)-5-fluoro-N2-(4-morpholinophenyl)-2,4-pyrimidinediamine]: the IC50 in experiment [1] (tryptase) was over 10 µM; in experiment [2] (setting [10]), under 10 µM.

`CN(c1nc(Nc2ccc(N3CCOCC3)cc2)ncc1F)C1CCC1` [Compound 1139, N4-Cyclobutyl-5-fluoro-N4-methyl-N2-(4-morpholinophenyl)-2,4-pyrimidinediamine]: the IC50 in experiment [1] (setting [6]) was over 10 µM; in experiment [2] (setting [7]), under 10 µM.

Take `CC(=O)N1CCN(c2ccc(Nc3ncc(F)c(N(C)C4CCC4)n3)cc2)CC1` [Compound 1140, N2-[4-(4-Acetylpiperazino)phenyl]-N4-cyclobutyl-5-fluoro-N4-methyl-2,4-pyrimidinediamine]: the IC50 was over 10 µM in experiment [1] (setting [6]) and under 10 µM in experiment [2] (setting [7]).

`CN1CCN(c2ccc(Nc3ncc(F)c(Nc4ccc5c(n4)NCCO5)n3)cc2)CC1` [Compound 1141, N4-(3,4-Dihydro-2H,4H-5-pyrid[1,4]oxazin-6-yl)-5-fluoro-N2-[4-(4-methylpiperazino)phenyl]-2,4-pyrimidinediamine]: the values for the IC50 in experiment [1] (tryptase), in experiment [2] (setting [9]) and in experiment [2] (setting [10]) were over 10 µM, under 10 µM and under 10 µM, respectively.

Regarding `CN1CCN(c2cccc(Nc3ncc(F)c(Nc4ccc5c(n4)NCCO5)n3)c2)CC1` [Compound 1142, N4-(3,4-Dihydro-2H,4H-5-pyrid[1,4]oxazin-6-yl)-5-fluoro-N2-[3-(4-methylpiperazino)phenyl]-2,4-pyrimidinediamine], the IC50 in experiment [1] (tryptase) was over 10 µM; in experiment [2] (setting [9]), under 10 µM; in experiment [2] (setting [10]), under 10 µM.

As to `Fc1cnc(Nc2cccc(-c3ncco3)c2)nc1Nc1ccc2c(n1)NCCO2` [Compound 1143, N4-(3,4-Dihydro-2H,4H-5-pyrid[1,4]oxazin-6-yl)-5-fluoro-N2-[3-(oxazol-2-yl)phenyl]-2,4-pyrimidinediamine], the IC50 in experiment [1] (tryptase) is over 10 µM; in experiment [2] (setting [9]), under 10 µM; in experiment [2] (setting [10]) it was under 10 µM.

The values are drawn from patent publication US20220073536A1 (Rigel Pharmaceuticals, Inc., priority 2003, published 2022).
